Measurements: patent publication US20220008391A1, “NOVEL COMPOUNDS FOR CONTROLLING ARTHROPODS” (Bayer Animal Health GmbH, priority 2018, published 2022)
Where two headings read alike, the source gives them in different places.

What was measured:
Ctenocephalides felis [1] = test: Antiparasitic activity after administration to dogs, fleas; format: in vivo; settings: iv, 2 × 5 mg/kg, CF
Experimental: (§1) Measurement of the Antiparasitic Activity after Administration of a Prodrug to Dogs
(§2) Compounds were dissolved in the appropriate volume of glycerol formal (p.a.) just before application to the animals (dose volume was adjusted to 0.1 ml/kg bodyweight). Dogs were injected intravenously respective subcutaneously (see table 8 for details).
(§3) Dogs were infested with ectoparasites according to table on study 1 day prior to counting for fleas, 2 days prior to counting for RS, IR, DV ticks and 3 days prior to counting for AA ticks. For this purpose, dogs were placed in an individually labeled box with grid windows. The ticks were released onto the back of the dogs and were allowed to disperse and move into the hair without disturbance. The dog remained in the box for approximately 120 minutes with the lid closed and the light switched off in the room. For flea infestations, flea containers were opened in the animal's cage and fleas were applied on the dog's back between the shoulders.
(§4) Tick counts including removal of I. ricinus, R. sanguineus and D. variabilis were conducted 48(±4) hours after the infestation. Tick counts including removal of A. americanum were conducted 72(±4) hours after the infestation. Flea counts were conducted 24(±4) hours after the infestation.
(§5) On each parasite assessment day percent efficacy was calculated as arithmetic mean parasite numbers as life attached and live free tick numbers and live flea numbers of the respective study group in comparison to parasite counts on a placebo non-treated control group.

[2] = Evaluation of pharmacokinetics (in vivo), dog; settings: concentration of parent compound A
Experimental: Evaluation of Pharmacokinetics (In Vivo) To evaluate the pharmacokinetics of test substances in vivo, these test substances are dissolved in appropriate formulation vehicles (ethanol, dimethyl sulfoxide, PEG400, glycerol formal etc.), or mixtures thereof. The test substances are then administered to rats or dogs intravenously, orally or subcutaneously. The intravenous application is performed as bolus. Administered doses range usually between 0.1 to 5 mg/kg, however, doses for subcutaneous and oral administration can exceed this range up to doses of 30 mg/kg. Blood samples are retrieved via a catheter, exsanguination or venous puncture in vials containing appropriate anticoagulants, such as lithium heparinate or potassium EDTA. Plasma is generated from the blood via centrifugation. Blood samples are taken over an appropriate time interval, usually lasting up to 144h after administration. If necessary, samples from later time points can also be taken. […] The quantitative measurement of the test substances in the samples is performed using calibration curves in the respective matrices. […] The evaluation of the plasma concentration/time profiles are afterwards evaluated using a validated pharmacokinetics evaluation program. […]

Dermacentor variabilis [3] = test: Antiparasitic activity after administration to rats, tick nymphs; format: in vivo; settings: Dermacentor variabilis, ip, 10 mg/kg, DV N
Experimental: (§6) Measurement of the Antiparasitic Activity after Administration of a Prodrug to Rats Compounds were dissolved in the appropriate volume of glycerol formal (p.a.) just before application to the animals (dose volume was adjusted to 0.03 mL/kg bodyweight). 5 rats per group were either injected intraperitoneally or subcutaneously. Rats were infested with 30 Dermacentor variabilis nymphs on study days −2, 7, 14, 21, 28, 35 and 30 adult Ctenocephalides fleas on study days −1, 8, 15, 22, 29, 36. […] Percent efficacy was calculated as arithmetic mean parasite numbers as life attached tick numbers and live flea numbers of the respective study group in comparison to parasite counts on a placebo-treated control group. Infestation of groups with less than 75% efficacy on two consecutive counting occasions will terminated for the respective parasite.

Ixodes ricinus = test: Antiparasitic activity after administration to dogs, I. ricinus ticks; format: in vivo; settings: IR
Experimental: as §1, §2, §3, §4, §5

[4] = Evaluation of pharmacokinetics (in vivo), rat; settings: concentration of parent compound A
Experimental: Evaluation of Pharmacokinetics (In Vivo) To evaluate the pharmacokinetics of test substances in vivo, these test substances are dissolved in appropriate formulation vehicles (ethanol, dimethyl sulfoxide, PEG400, glycerol formal etc.), or mixtures thereof. The test substances are then administered to rats or dogs intravenously, orally or subcutaneously. The intravenous application is performed as bolus. Administered doses range usually between 0.1 to 5 mg/kg, however, doses for subcutaneous and oral administration can exceed this range up to doses of 30 mg/kg. Blood samples are retrieved via a catheter, exsanguination or venous puncture in vials containing appropriate anticoagulants, such as lithium heparinate or potassium EDTA. Plasma is generated from the blood via centrifugation. Blood samples are taken over an appropriate time interval, usually lasting up to 144h after administration. If necessary, samples from later time points can also be taken. If possible, time points are chosen so that the initial absorption phase, the maximum plasma concentration (Cmax), and exposure within a certain time interval (AUC(0-t)) are described. Furthermore, it is possible to also retrieve organ-, tissue- and urine samples. The quantitative measurement of the test substances in the samples is performed using calibration curves in the respective matrices. The protein content of the samples is precipitated using acetonitrile or methanol. Thereafter, the samples are separated using HPLC in combination with reversed phase chromatography columns. The HPLC system is coupled to a triple quadrupole mass spectrometer via an electrospray interface. The evaluation of the plasma concentration/time profiles are afterwards evaluated using a validated pharmacokinetics evaluation program. […] Relative bioavailability (Frel) was used to describe the exposure of parent after prodrug administration compared to the exposure of parent after direct administration of compound A which was normalised to 100%.

Ctenocephalides felis [5] = test: Antiparasitic activity after administration to rats, fleas; format: in vivo; settings: Ctenocephalides felis, ip, 10 mg/kg, CF A
Experimental: as §6

Amblyomma americanum = test: Antiparasitic activity after administration to dogs, A. americanum ticks; format: in vivo; settings: AA
Experimental: as §1, §2, §3, §4, §5

Dermacentor variabilis [6] = test: Antiparasitic activity after administration to dogs, D. variabilis ticks; format: in vivo; settings: DV
Experimental: as §1, §2, §3, §4, §5

Rhipicephalus sanguineus = test: Antiparasitic activity after administration to dogs, R. sanguineus ticks; format: in vivo; settings: RS
Experimental: as §1, §2, §3, §4, §5

[7] = iv bolus of the named substance
[8] = sc administration of the named substance
[9] = 48 h, study day 2, read-out: Efficacy SD2
[10] = 216 h, study day 9, read-out: Efficacy SD9
[11] = 384 h, study day 16, read-out: Efficacy SD16
[12] = iv, 2 × 5 mg/kg, study 1, month 1
[13] = iv, 2 × 5 mg/kg, study 1, month 2
[14] = iv, 2 × 5 mg/kg, study 1, month 3
[15] = iv, 2 × 5 mg/kg, study 1, month 4
[16] = iv, 2 × 5 mg/kg, study 1, month 5
[17] = iv, 2 × 5 mg/kg, study 1, month 6

N#CC1(NC(=O)c2cc(-c3cnn(-c4c(Cl)cc(C(F)(C(F)(F)F)C(F)(F)F)cc4OC(F)(F)F)c3)ccc2Cl)CC1 [Parent Compound A, 2-Chlor-5-{1-[2-chlor-4-(1,1,1,2,3,3,3-heptafluorpropan-2-yl)-6-(trifluormethoxy)phenyl]-1H-pyrazol-4-yl}-N-(1-cyanocyclopropyl)benzamide]
% Efficacy in study month 1 (Ctenocephalides felis [1]; study 1, month 1): 100% | % Efficacy in study month 2 (Ctenocephalides felis [1]; study 1, month 2): 100% | % Efficacy in study month 3 (Ctenocephalides felis [1]; study 1, month 3): 100% | % Efficacy in study month 4 (Ctenocephalides felis [1]; study 1, month 4): 100% | % Efficacy in study month 5 (Ctenocephalides felis [1]; study 1, month 5): 100% | % Efficacy in study month 6 (Ctenocephalides felis [1]; study 1, month 6): 100% | AUC(0-72 h)norm of parent compound A [2, 7]: 6.0 kg·h/L | AUC(0-384 h)norm of parent compound A [2, 8]: 1.0 kg·h/L | inhibition in vivo at 10 mg/kg (Dermacentor variabilis [3]; [9]): 96% | inhibition in vivo at 10 mg/kg (Dermacentor variabilis [3]; [10]): 87% | inhibition in vivo at 10 mg/kg (Dermacentor variabilis [3]; [11]): 83% | inhibition in vivo at 10 mg/kg (Dermacentor variabilis [3]; 552 h, study day 23, read-out: Efficacy SD23): 93% | inhibition in vivo at 10 mg/kg (Dermacentor variabilis [3]; 720 h, study day 30, read-out: Efficacy SD30): 53% | inhibition in vivo at 10 mg/kg (Dermacentor variabilis [3]; 888 h, study day 37, read-out: Efficacy SD37): 32% | % Efficacy in study month 1 (Ixodes ricinus; [12]): 100% | % Efficacy in study month 2 (Ixodes ricinus; [13]): 100% | % Efficacy in study month 3 (Ixodes ricinus; [14]): 100% | % Efficacy in study month 4 (Ixodes ricinus; [15]): 100% | % Efficacy in study month 5 (Ixodes ricinus; [16]): 98% | % Efficacy in study month 6 (Ixodes ricinus; [17]): 98% | % Efficacy in study month 6 (Ixodes ricinus; sc, 5 mg/kg, study 3, month 6): 3% | AUC(0-144 h)norm of parent compound A [4, 7]: 11 kg·h/L | AUC(0-24)norm of parent compound A ([4]; po, 20 mg/kg): 0.37 kg·h/L | AUC(0-144 h)norm of parent compound A [4, 8]: 1.7 kg·h/L | pest or weed control at 10 mg/kg (Ctenocephalides felis [5]; [9]): 84% | pest or weed control at 10 mg/kg (Ctenocephalides felis [5]; [10]): 68% | pest or weed control at 10 mg/kg (Ctenocephalides felis [5]; [11]): 71% | % Efficacy in study month 1 (Amblyomma americanum; iv, 2 × 5 mg/kg, study 2, month 1): 100% | % Efficacy in study month 2 (Amblyomma americanum; iv, 2 × 5 mg/kg, study 2, month 2): 99% | % Efficacy in study month 3 (Amblyomma americanum; iv, 2 × 5 mg/kg, study 2, month 3): 99% | % Efficacy in study month 4 (Amblyomma americanum; iv, 2 × 5 mg/kg, study 2, month 4): 99% | % Efficacy in study month 5 (Amblyomma americanum; iv, 2 × 5 mg/kg, study 2, month 5): 95% | % Efficacy in study month 6 (Amblyomma americanum; iv, 2 × 5 mg/kg, study 2, month 6): 98% | % Efficacy in study month 6 (Amblyomma americanum; sc, 5 mg/kg, study 3, month 6): 90% | % Efficacy in study month 1 (Dermacentor variabilis [6]; [12]): 98% | % Efficacy in study month 2 (Dermacentor variabilis [6]; [13]): 99% | % Efficacy in study month 3 (Dermacentor variabilis [6]; [14]): 100% | % Efficacy in study month 4 (Dermacentor variabilis [6]; [15]): 95% | % Efficacy in study month 5 (Dermacentor variabilis [6]; [16]): 98% | % Efficacy in study month 6 (Dermacentor variabilis [6]; [17]): 84% | % Efficacy in study month 6 (Dermacentor variabilis [6]; sc, 5 mg/kg, study 3, month 6): 19% | % Efficacy in study month 1 (Rhipicephalus sanguineus; [12]): 100% | % Efficacy in study month 2 (Rhipicephalus sanguineus; [13]): 100% | % Efficacy in study month 3 (Rhipicephalus sanguineus; [14]): 100% | % Efficacy in study month 4 (Rhipicephalus sanguineus; [15]): 100% | % Efficacy in study month 5 (Rhipicephalus sanguineus; [16]): 100% | % Efficacy in study month 6 (Rhipicephalus sanguineus; [17]): 99% | % Efficacy in study month 6 (Rhipicephalus sanguineus; sc, 5 mg/kg, study 3, month 6): 50%
